The record followed here is patent US20260206759A1, “PYRAZOL-5-ETHER COMPOUND, AND PREPARATION METHOD THEREFOR AND USE THEREOF” (CAC NANTONG CHEMICAL CO., LTD., priority 2023, published 2026).

The structures appear in SMILES notation.

What all share (type): in vivo
The subject of experiment [1] is wheat powdery mildew (Blumeria graminis (DC.) Speer). Briefly: Whole-plant pot assay, control effect against wheat powdery mildew. Particulars: spray on wheat leaves, inoculation 24 h after treatment, assessed 10 days after inoculation. On the procedure:
Various kinds of pathogens were tested with the compounds of the present application. Unless otherwise specified in the examples and the present application, the preparation method of samples is as follows: 10 mg of the compound was weighed and dissolved in 1 mL DMF to prepare a 10000 ppm stock solution, and the stock solution was diluted with 0.05% Tween-80 aqueous solution to the required concentrations for activity tests.
In this example, the control effects of the prepared pyrazol-5-ether compounds against wheat powdery mildew (Blumeria graminis (DC.) Speer) were tested using the following method.
A whole-plant pot assay was employed for screening. The pesticide formulation was uniformly sprayed onto wheat leaves at the first true leaf stage using a laryngeal atomizer, with three replicates per treatment. The treated plant was air-dried naturally indoors. At 24 hours post-treatment, wheat powdery mildew spores (collected approximately 10 days after inoculation) were evenly dusted onto the compound-treated wheat leaves. Disease assessment was conducted 10 days after spore inoculation when symptom development stabilized in the control group. The assessment results were recorded on a 100-0 scale, where ‘100’ indicates complete disease absence and ‘0’ represents maximum disease severity.

The test system of experiment [2] is cucumber powdery mildew (Erysiphe cichoracearum). Briefly: Whole-plant pot assay, control effect against cucumber powdery mildew. Particulars: 2.5 ppm, foliar spray on cucumber seedlings, inoculation 24 h after treatment. On the procedure: In this example, the control effects of the prepared pyrazol-5-ether compounds against cucumber powdery mildew (Erysiphe cichoracearum) were tested using the following method.
(§1) A whole-plant pot assay was employed for screening. […] Greenhouse-cultivated cucumber seedlings at the two-leaf stage served as test hosts for cucumber powdery mildew (Erysiphe cichoracearum). The compounds of the present application were sprayed on the leaves at designed concentrations, and lank controls sprayed with water were also set, in triplicate. At 24 hours post-treatment, pathogen inoculation was conducted. After inoculation, the plants were maintained in controlled environment chamber for constant humidity culture (temperature: 25° C. day/20° C. night, relative humidity: 95%-99%). After 24 hours of incubation, the plants were transferred to the greenhouse. Control effect assessments were conducted on the compounds when disease symptoms fully developed in controls (typically one week). The assessment results were recorded on a 100-0 scale, where ‘100’ indicates complete disease absence and ‘0’ represents maximum disease severity.

The test system of experiment [3] is soybean rust (Phakopsora pachyrhizi). As to the kind of experiment: Whole-plant pot assay, control effect against soybean rust. Particulars: foliar spray on soybean plants, inoculation 24 h after treatment. On the procedure: In this example, the control effects of the prepared pyrazol-5-ether compounds against soybean rust (Phakopsora pachyrhizi) were tested using the following method.
as §1, with “soybean plants” for “cucumber seedlings”, “soybean rust (Phakopsora pachyrhizi).” for “cucumber powdery mildew (Erysiphe cichoracearum).”, “blank” for “lank”, “recorded according to the A Manual of Assessment Keys for Plant Diseases compiled by the American Phytopathological Society” for “recorded”

With `CCN(C)/C=N/c1cc(C)c(Oc2cc(C(F)(F)F)nn2C)cc1C` [Compound 16, (E)-N′-[4-(1-methyl-3-trifluoromethyl-1H-pyrazol-5-yloxy)-2,5-dimethylphenyl]-N-ethyl-N-met hylformamidine], the “control effect against wheat powdery mildew” value is 81.48% in experiment [1] (10 ppm) and 96.30% in experiment [1] (40 ppm).
For `CCN(C)C=Nc1cc(C)c(Oc2cc(C)nn2C)cc1Cl` [Compound 132], in experiment [1] (10 ppm), the “control effect against wheat powdery mildew” value amounted to 74.07%.
On the same count and under the same terms, then `CCN(C)C=Nc1cc(C)c(Oc2c(C)c(C)nn2C)cc1C` [Compound 143], with 74.07%.
As for `CCN(C)/C=N/c1cc(Cl)c(Oc2cc(C(C)(C)C)nn2C)cc1C` [KC1], the entries for the “control effect against wheat powdery mildew” value in experiment [1] (10 ppm) and in experiment [1] (40 ppm) were 0% and 22.22%, respectively. Besides, the “control effect against cucumber powdery mildew” value in experiment [2] is 0%.
In the case of `Cc1cc(Oc2cc(C(C)(C)C)nn2C)c(Cl)cc1/N=C/N1CCCC1` [KC2], the “control effect against wheat powdery mildew” value in experiment [1] (10 ppm) and in experiment [1] (40 ppm) was 0% each time. Also, the “control effect against cucumber powdery mildew” value in experiment [2] is on record as 0%.
On to `CCN(C)/C=N/c1cc(C)c(Oc2ccn(-c3ccc(Cl)cc3)n2)cc1C` [KC3], for which the “control effect against wheat powdery mildew” value was 0% in experiment [1] (10 ppm) and 59.26% in experiment [1] (40 ppm). For the same compound, in experiment [2], the “control effect against cucumber powdery mildew” value amounted to 22.22%. The “control effect against soybean rust” value in experiment [3] (4 ppm) is given as 0%; in experiment [3] (10 ppm), 22%.
